Assay results taken from patent publication US11873295B2, “Allosteric chromenone inhibitors of phosphoinositide 3-kinase (PI3K) for the treatment of disease” (Petra Pharma Corporation, priority 2021, dated 2024).

Experiments:
[1] = molecular target: T1, human full length PIK3KA Wild-type (p110α/p85α complex) (Homo sapiens, UniProt P42336); assay: PI3K-alpha kinase (PIK3CA) biochemical activity, wild-type, ADP-Glo; settings: PI3K-α (PIK3CA) biochemical, Soy PI lipid substrate
T1 construct: Recombinant, catalytically active human full length PIK3KA Wild-type and H1047R mutant were purchased as 1:1 complex; 6xHis (N); purchased EMD Millipore Sigma 14-602M
Outline: (§1)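 Full-length His-p110α/p85α complex, wild-type or H1047R, 1–5 nM, preincubated with compound 1 h at 27 °C in HEPES pH 7.4, 25 mM MgCl2, 0.01% Triton X-100, 1% DMSO. Reaction with 20 μM ATP and 50 μM PIP2diC8 or soy PI at 27 °C to ~10% ATP conversion; ADP-Glo luminescence. IC50 from 10-point four-parameter logistic fit.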

[2] = system: PI3K-α (PIK3CA) in MDA-MB-453 cells; assay: PI3K-alpha kinase (PIK3CA) activity in vitro cell based assay, MDA-MB-453 cells, AlphaLisa SureFire; settings: 0% FBS, 3 hours treatment, relative IC50
Method: PI3K-Alpha Kinase (PIK3CA) Activity In Vitro Cell Based Assay and Determining IC50 Values for Inhibitors
The MDA-MB-453 (ATCC-HTB-131) cell line was obtained from the American Type Culture Collection (Manassas, VA). Cells were maintained in Dulbecco's Modified Eagle Media (DMEM, Gibco 11965-092) supplemented with 10% Fetal Bovine Serum, heat inactivated (FBS HI, Gibco 10082-147), 1× non-essential amino acids (NEAA, Gibco 11140-050), and 1 mM sodium pyruvate (Gibco 11360-070). Cultures were maintained in a humidified incubator at 37° C. under 5% CO2/95% air.
For compound testing in 0% FBS, MDA-MB-453 cells were seeded at a density of 1.5×10^4 cells per well in white 384-well plates in 20 μl of Minimum Essential Media (MEM) assay media with 1×NEAA, 1 mM sodium pyruvate, and 1 μg/mL human insulin (Sigma I9278). Compounds dissolved in 10 mM stock solutions in DMSO were serially diluted 1:3 in DMSO to generate a 10-point dilution series and plated using an acoustic liquid handler system (Echo 550 Series Liquid Handler, Labcyte). A 5× intermediate compound dilution plate in MEM with 1×NEAA and 1 mM sodium pyruvate (150 μM starting compound concentration in 1.5% DMSO) was then prepared. Five μl of the intermediate serially diluted compounds were added to the cell plate to final concentrations ranging from […] in 0.3% DMSO. 0.3% DMSO alone was used to establish the maximum (MAX) signal and GDC-0032 at a final concentration of 1 μM was used as a reference compound for the minimum (MIN) signal. After 3 hours treatment, the medium was removed, and the cells lysed in 10 μL of 1× SureFire Lysis buffer with shaking for 10 minutes at room temperature. The Acceptor Mix (Reaction Buffer 1+Reaction Buffer 2+Activation Buffer+SureFire Ultra Acceptor Beads) was prepared by diluting Activation buffer 25-fold in combined Reaction Buffer 1 and Reaction Buffer 2. The Acceptor beads were diluted 50-fold in the combined Reaction Buffers. Five μL of Acceptor Mix was added to each well, the plate was sealed and covered with foil and incubated for 1 hour at room temperature. The Donor Mix (dilution buffer+SureFire Ultra Donor Beads) was prepared by diluting Donor Beads 50-fold in dilution buffer. Five μL of the Donor Mix was added to each well and the plate sealed and covered with foil and incubated for 1 hour at room temperature in the dark. The plates were read on a Neo2 plate reader instrument from Biotek using standard AlphaLisa settings. Compounds were tested in duplicate and the average % inhibition at each compound concentration was used to generate a single dose response curve. The data were processed using the Genedata-Screener tool. Relative IC50 values were determined using luminescence units by calculating percent inhibition with respect to the in-plate “MIN” (GDC-0032 reference control) and “MAX” (DMSO) controls. The data was analyzed using a 4-parameter nonlinear logistic equation (four-parameter logistic concentration-response curve): Y=bottom+[(top−bottom)/1+(X/IC50)slope] where Y=% inhibition, X=concentration of inhibitor, bottom=minimum value of y attained by curve-fit, top=maximum value of y attained by curve-fit and slope=steepness of curve at the IC50. % Inhibition=[(signal at X−median Min)/(median Max−median Min)]×100 IC50: concentration of compound that reduces a given response (ligand binding, enzyme response) by 50%. Relative IC50: concentration giving half the compound's maximum response.
For IC50 values shown in Table B, “A” means IC50<50 nM; “B” means IC50 ranging between 50 nM and 100 nM; “C” means IC50 ranging between 100 nM and 500 nM; “D” means IC50>500 nM.

[3] = molecular target: T2, human full length PIK3KA H1047R mutant (p110α/p85α complex) (Homo sapiens, UniProt P42336, H1047R); assay: PI3K-alpha kinase (PIK3CA) biochemical activity, H1047R mutant, ADP-Glo; settings: PI3K-α (PIK3CA) biochemical, H1047R mutant, Soy PI lipid substrate
T2 construct: Recombinant, catalytically active human full length PIK3KA Wild-type and H1047R mutant were purchased as 1:1 complex; 6xHis (N); purchased EMD Millipore Sigma 14-792M
T2 sequence (P42336 whole entry H1047R): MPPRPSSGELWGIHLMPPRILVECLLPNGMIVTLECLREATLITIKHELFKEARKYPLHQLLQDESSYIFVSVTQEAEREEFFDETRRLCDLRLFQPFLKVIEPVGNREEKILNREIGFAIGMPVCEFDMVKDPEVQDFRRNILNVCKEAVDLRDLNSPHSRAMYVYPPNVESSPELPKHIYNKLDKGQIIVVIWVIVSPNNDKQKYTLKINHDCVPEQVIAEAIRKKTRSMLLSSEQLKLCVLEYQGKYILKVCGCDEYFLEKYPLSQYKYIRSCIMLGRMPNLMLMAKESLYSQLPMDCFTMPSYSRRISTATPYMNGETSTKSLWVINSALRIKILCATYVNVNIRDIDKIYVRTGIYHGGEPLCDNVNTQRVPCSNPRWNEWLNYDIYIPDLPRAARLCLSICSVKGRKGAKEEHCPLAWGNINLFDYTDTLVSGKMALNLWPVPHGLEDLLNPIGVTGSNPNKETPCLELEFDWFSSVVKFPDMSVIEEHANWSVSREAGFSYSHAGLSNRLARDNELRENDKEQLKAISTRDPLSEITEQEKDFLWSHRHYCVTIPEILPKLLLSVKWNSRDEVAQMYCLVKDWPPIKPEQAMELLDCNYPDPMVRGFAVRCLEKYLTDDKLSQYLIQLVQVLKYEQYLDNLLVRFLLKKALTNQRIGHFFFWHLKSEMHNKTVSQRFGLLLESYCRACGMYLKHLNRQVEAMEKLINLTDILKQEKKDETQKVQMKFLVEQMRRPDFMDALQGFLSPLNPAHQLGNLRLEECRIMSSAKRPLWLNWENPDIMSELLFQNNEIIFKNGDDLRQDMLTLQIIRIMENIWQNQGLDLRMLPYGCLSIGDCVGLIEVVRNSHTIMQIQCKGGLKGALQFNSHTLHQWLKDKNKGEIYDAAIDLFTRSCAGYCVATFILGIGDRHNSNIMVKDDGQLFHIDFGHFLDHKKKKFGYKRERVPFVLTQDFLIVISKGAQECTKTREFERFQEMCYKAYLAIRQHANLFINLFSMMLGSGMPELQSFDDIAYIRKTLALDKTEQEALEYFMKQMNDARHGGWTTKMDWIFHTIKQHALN
T2 sequence (P27986 whole entry partner): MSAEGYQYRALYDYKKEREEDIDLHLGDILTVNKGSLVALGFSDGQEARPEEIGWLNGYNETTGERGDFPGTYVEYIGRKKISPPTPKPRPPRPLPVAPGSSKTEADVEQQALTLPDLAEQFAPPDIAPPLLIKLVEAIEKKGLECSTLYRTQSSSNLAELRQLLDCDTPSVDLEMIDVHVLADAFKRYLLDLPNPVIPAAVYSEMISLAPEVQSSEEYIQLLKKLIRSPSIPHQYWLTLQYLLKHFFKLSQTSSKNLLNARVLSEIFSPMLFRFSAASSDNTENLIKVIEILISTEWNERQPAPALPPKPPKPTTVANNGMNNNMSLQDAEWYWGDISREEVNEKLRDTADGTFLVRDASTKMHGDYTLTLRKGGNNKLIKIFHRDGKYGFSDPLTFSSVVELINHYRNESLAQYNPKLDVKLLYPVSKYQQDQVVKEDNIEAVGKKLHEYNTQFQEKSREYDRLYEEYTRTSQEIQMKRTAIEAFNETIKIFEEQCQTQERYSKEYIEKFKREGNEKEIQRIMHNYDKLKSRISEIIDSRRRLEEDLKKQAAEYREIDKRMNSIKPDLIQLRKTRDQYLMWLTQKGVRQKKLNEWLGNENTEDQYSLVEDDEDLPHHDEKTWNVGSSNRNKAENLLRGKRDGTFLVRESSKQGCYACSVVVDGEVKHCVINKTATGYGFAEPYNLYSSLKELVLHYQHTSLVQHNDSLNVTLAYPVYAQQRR
Outline: as §1

Compound | IC50 [1] [µM] | IC50 ([2]; Homo sapiens, MDA-MB-453, 3 h) [µM] | IC50 [3] [µM] | IC50 [2] [µM]
Cc1cc([C@@H](C)Nc2ccc(C(F)(F)F)nc2C(=O)O)c2oc(-c3ccccc3)c(C)c(=O)c2c1 [Example 26, 3-[[(1R)-1-(3,6-Dimethyl-4-oxo-2-phenyl-chromen-8-yl)ethyl]amino]-6-(trifluoromethyl)-pyridine-2-carboxylic acid] | 0.5 to 1 | 0.05 to 0.1 | < 0.5 | 
Cc1cc([C@@H](C)Nc2ccccc2C(=O)O)c2oc(-c3ccccc3)c(C3COC3)c(=O)c2c1 [Example 112, 2-[[(1R)-1-[6-methyl-3-(oxetan-3-yl)-4-oxo-2-phenyl-chromen-8-yl]ethyl]amino]benzoic acid 2,2,2-trifluoroacetic acid] | 1 to 5 | 0.05 to 0.1 | < 0.5 | 
2-[[(1R)-1-[3,6-Dimethyl-4-oxo-2-[4-(1H-pyrazol-5-yl)phenyl]chromen-8-yl]ethyl]amino]benzoic acid [Example 169] | < 0.5 |  | < 0.5 | < 0.05
Cc1cc([C@@H](C)Nc2ccc(F)cc2C(=O)O)c2oc(-c3cccc(C#N)c3)c(C)c(=O)c2c1 [Example 129, 2-[[(1R)-1-[2-(3-Cyanophenyl)-3,6-dimethyl-4-oxo-chromen-8-yl]ethyl]amino]-5-fluoro-benzoic acid] | < 0.5 | < 0.05 | < 0.5 | 
Cc1cc([C@@H](C)Nc2cccnc2C(=O)O)c2oc(-c3cccc(F)c3)c(C)c(=O)c2c1 [Example 136, 3-[[(1R)-1-[2-(3-Fluorophenyl)-3,6-dimethyl-4-oxo-chromen-8-yl]ethyl]amino]pyridine-2-carboxylic acid] | 5 to 10 | 0.05 to 0.1 | 0.5 to 1 | 
Cc1cc([C@@H](C)Nc2ccc(Br)nc2C(=O)O)c2oc(-c3ccccc3)c(C)c(=O)c2c1 [Example 35, 6-Bromo-3-[[(1R)-1-(3,6-dimethyl-4-oxo-2-phenyl-chromen-8-yl)ethyl]amino]-pyridine-2-carboxylic acid] | 1 to 5 | < 0.05 | < 0.5 | 
Cc1c(-c2ccccc2F)oc2c([C@@H](C)Nc3ccc(Cl)nc3C(=O)O)cc(C(F)(F)F)cc2c1=O [Example 98, 6-Chloro-3-[[(1R)-1-[2-(2-fluorophenyl)-3-methyl-4-oxo-6-(trifluoromethyl)-chromen-8-yl]ethyl]amino]pyridine-2-carboxylic acid] | 1 to 5 | < 0.05 | < 0.5 | 
Cc1c(-c2ccccc2)oc2c([C@@H](C)Nc3ccccc3C(=O)O)cc(F)cc2c1=O [Example 84, 2-[[(1R)-1-(6-Fluoro-3-methyl-4-oxo-2-phenyl-chromen-8-yl)ethyl]amino]benzoic acid 2,2,2-trifluoroacetic acid] | 5 to 10 | > 0.5 | < 0.5 | 
Cc1cc(C(C)Nc2ccccc2C(=O)O)c2oc(-c3ccccc3)c(C#N)c(=O)c2c1 (single isomer, unassigned; isomer 2) [Example 62, 2-[1-(3-Cyano-6-methyl-4-oxo-2-phenyl-chromen-8-yl)ethylamino]benzoic acid, Isomer 2] | < 0.5 | < 0.05 | < 0.5 | 
Cc1cc([C@@H](C)Nc2ccc(C)nc2C(=O)O)c2oc(-c3ccccc3)c(C(F)(F)F)c(=O)c2c1 [Example 116, 6-Methyl-3-[[(1R)-1-[6-methyl-4-oxo-2-phenyl-3-(trifluoromethyl)-chromen-8-yl]ethyl]amino]pyridine-2-carboxylic acid] |  | < 0.05 |  | 
Cc1cc([C@@H](C)Nc2cccc(F)c2C(=O)O)c2oc(-c3cccc(F)c3)c(C)c(=O)c2c1 [Example 143, 2-Fluoro-6-[[(1R)-1-[2-(3-fluorophenyl)-3,6-dimethyl-4-oxo-chromen-8-yl]ethyl]amino]benzoic acid 2,2,2-trifluoroacetic acid] |  | < 0.05 |  | 

Continued, in another order:

IC50 [1] [µM] | IC50 ([2]; Homo sapiens, MDA-MB-453, 3 h) [µM] | IC50 [3] [µM] | Compound | IC50 [2] [µM]
0.5 to 1 | < 0.05 | < 0.5 | Cc1cc([C@@H](C)Nc2ccccc2C(=O)O)c2oc(-c3ccc(F)cc3)c(C)c(=O)c2c1 [Example 29, 2-[[(1R)-1-[2-(4-Fluorophenyl)-3,6-dimethyl-4-oxo-chromen-8-yl]ethyl]amino]benzoic acid] | 
 | 0.05 to 0.1 |  | Cc1cc([C@@H](C)Nc2ccccc2C(=O)O)c2oc(-c3ccc(-c4cccc(C#N)c4)cc3)c(C)c(=O)c2c1 [Example 173, 2-[[(1R)-1-[2-[4-(3-Cyanophenyl)phenyl]-3,6-dimethyl-4-oxo-chromen-8-yl]ethyl]amino]benzoic acid] | 
 | < 0.05 |  | Cc1cc([C@@H](C)Nc2ccccc2C(=O)O)c2oc(-c3cccc(-c4ccccc4C#N)c3)c(C)c(=O)c2c1 [Example 174, 2-[[(1R)-1-[2-[3-(2-Cyanophenyl)phenyl]-3,6-dimethyl-4-oxo-chromen-8-yl]ethyl]amino]benzoic acid] | 
 | < 0.05 |  | Cc1cc([C@@H](C)Nc2ccccc2C(=O)O)c2oc(-c3ccc(-c4ccccc4C#N)cc3)c(C)c(=O)c2c1 [Example 177, 2-[[(1R)-1-[2-[4-(2-Cyanophenyl)phenyl]-3,6-dimethyl-4-oxo-chromen-8-yl]ethyl]amino]benzoic acid] | 
 | 0.05 to 0.1 |  | Cc1cc([C@@H](C)Nc2ccccc2C(=O)O)c2oc(-c3ccc(-c4ccc(C#N)cc4)cc3)c(C)c(=O)c2c1 [Example 172, 2-[[(1R)-1-[2-[4-(4-Cyanophenyl)phenyl]-3,6-dimethyl-4-oxo-chromen-8-yl]ethyl]amino]benzoic acid] | 
 | < 0.05 |  | Cc1cc([C@@H](C)Nc2ccccc2C(=O)O)c2oc(-c3cccc(-n4cc(C#N)cn4)c3)c(C)c(=O)c2c1 [Example 178, 2-[[(1R)-1-[2-[3-(4-Cyanopyrazol-1-yl)phenyl]-3,6-dimethyl-4-oxo-chromen-8-yl]ethyl]amino]benzoic acid 2,2,2-trifluoroacetic acid] | 
 | < 0.05 |  | Cc1cc([C@@H](C)Nc2ccccc2C(=O)O)c2oc(-c3cccc(C#N)c3F)c(C)c(=O)c2c1 [Example 170, 2-[[(1R)-1-[2-(3-Cyano-2-fluoro-phenyl)-3,6-dimethyl-4-oxo-chromen-8-yl]ethyl]amino]benzoic acid] | 
 | 0.05 to 0.1 |  | Cc1cc([C@@H](C)Nc2ccccc2C(=O)O)c2oc(-c3cccc(-c4cccc(C#N)c4)c3)c(C)c(=O)c2c1 [Example 176, 2-[[(1R)-1-[2-[3-(3-Cyanophenyl)phenyl]-3,6-dimethyl-4-oxo-chromen-8-yl]ethyl]amino]benzoic acid] | 
 | 0.05 to 0.1 |  | Cc1cc([C@@H](C)Nc2ccccc2C(=O)O)c2oc(-c3cccc(-c4ccc(C#N)cc4)c3)c(C)c(=O)c2c1 [Example 175, 2-[[(1R)-1-[2-[3-(4-Cyanophenyl)phenyl]-3,6-dimethyl-4-oxo-chromen-8-yl]ethyl]amino]benzoic acid] | 
